The test system of data set [1] is human MTHFR. Kind of data set: Cell-free MTHFR enzyme activity assay in crude yeast extract, with heat treatment at 55° C. The conditions noted are these: crude yeast lysate. Type of data set: biochemical.
Data set [2] deals with T1, human MTHFR (Homo sapiens, UniProt P42898).
T1 construct: made in house; host or cells: Saccharomyces cerevisiae fol3Δ met13Δ, GAL1 promoter, crude extract
The description is as above. In kind it is biochemical. The conditions noted are these: 55° C., 20 m.

Data on 3 substances can be found in patent publication US20090281061A1, “Impaired Alleles of Genes Involved in Metabolic Pathways and Methods for Detecting and Using the Same” (The Regents of the University of California, priority 2008, published 2009).

Take “R594Q: common human MTHFR variant, regulatory domain”: the “cell-free enzyme activity compared with the major allele” value in the data set with human MTHFR [1] is “benign”.

In the case of “major allele: the most common human MTHFR allele in the population, expressed in yeast”, the “activity retained after heat treatment, of original activity” value in the data set with human MTHFR [2] is on record as “about 30%”.

Consider “E429A: common human MTHFR variant, regulatory domain”, for which, in the data set with human MTHFR [1], the “cell-free enzyme activity compared with the major allele” value was “benign”.
